Source: patent US10717742B2, “Spiro[3H-indole-3,2′-pyrrolidin]-2(1H)-one compounds and derivatives as MDM2-P53 inhibitors” (Boehringer Ingelheim International GmbH, priority 2015, dated 2020)

molecular target: p53-MDM2 interaction (GST-MDM2 protein aa 23-117 / biotinylated p53 wt peptide) (Homo sapiens (Human), UniProt Q00987); assay: Mdm2-p53 Inhibition AlphaScreen; type: binding; settings: GST-MDM2 (aa 23-117) / biotinylated p53 wt peptide
Procedure: Mdm2-p53 Inhibition AlphaScreen
15 μL of compound in 20% DMSO (serial pre-dilutions of compound are done in 100% DMSO) is pipetted to the wells of a white OptiPlate-96 (Perkin Elmer). A mix consisting of 20 nM GST-MDM2 protein (aa 23-117) and 20 nM biotinylated p53 wt peptide (encompassing aa 16-27 of wt human p53, amino acid sequence […]-Ttds-Lys-Biotin, molecular weight 2132.56 g/mol) is prepared in assay buffer (50 mM Tris/HCl pH 7.2; 120 mM NaCl; 0.1% bovine serum albumin (BSA); 5 mM dithiothreitol (DTT); 1 mM ethylenediaminetetraacetic acid (EDTA); 0.01% Tween 20). 30 μL of the mix is added to the compound dilutions and incubated for 15 min at rt while gently shaking the plate at 300 rounds per minute (rpm). Subsequently, 15 μL of premixed AlphaLISA Glutathione Acceptor Beads and AlphaScreen Streptavidin Donor Beads from PerkinElmer (in assay buffer at a concentration of 10 μg/mL each) are added and the samples are incubated for 30 min at rt in the dark (shaking 300 rpm). Afterwards, the signal is measured in a PerkinElmer Envision HIS Multilabel Reader using the AlphaScreen protocol from Perkin Elmer.
Each plate contains negative controls where biotinylated p53-peptide and GST-MDM2 are left out and replaced by assay buffer. Negative control values are entered as low basis value when using the software GraphPad Prism for calculations. Furthermore, a positive control (5% DMSO instead of test compound; with protein/peptide mix) is pipetted. Determination of IC50 values are carried out using GraphPad Prism 3.03 software (or updates thereof).

Chain of p53-MDM2 interaction (GST-MDM2 protein aa 23-117 / biotinylated p53 wt peptide) (Q00987 23-117): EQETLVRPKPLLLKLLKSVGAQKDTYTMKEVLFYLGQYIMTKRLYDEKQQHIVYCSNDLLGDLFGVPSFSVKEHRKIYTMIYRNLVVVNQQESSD

IC50	Compound
23 nM	COC(=O)c1ccc2c3n(nc2c1C)[C@@H]1[C@H](C3)N(CC2CC2)[C@@]2(C(=O)Nc3cc(Cl)ccc32)[C@H]1c1cccc(Cl)c1F [Ia-20]
2 nM	O=C(O)c1ccc2c3n(nc2c1)[C@@H]1[C@H](C3)N(CC2CC2)[C@@]2(C(=O)Nc3cc(Cl)ccc32)[C@H]1c1cccc(Cl)c1F [Ia-25]
4 nM	O=C(O)c1ccc2c3n(nc2c1)[C@@H]1[C@H](C3)N(CC2CCC2)[C@@]2(C(=O)Nc3cc(Cl)ccc32)[C@H]1c1cccc(Cl)c1F [Ia-26]
2 nM	CC(C)CN1[C@H]2Cc3c4ccc(C(=O)O)cc4nn3[C@H]2[C@H](c2cccc(Cl)c2F)[C@]12C(=O)Nc1cc(Cl)ccc12 [Ia-27]
2 nM	CCCN1[C@H]2Cc3c4ccc(C(=O)O)cc4nn3[C@H]2[C@H](c2cccc(Cl)c2F)[C@]12C(=O)Nc1cc(Cl)ccc12 [Ia-29]
2 nM	CCN1[C@H]2Cc3c4ccc(C(=O)O)cc4nn3[C@H]2[C@H](c2cccc(Cl)c2F)[C@]12C(=O)Nc1cc(Cl)ccc12 [Ia-30]
3 nM	COCCN1[C@H]2Cc3c4ccc(C(=O)O)cc4nn3[C@H]2[C@H](c2cccc(Cl)c2F)[C@]12C(=O)Nc1cc(Cl)ccc12 [Ia-31]
2 nM	CCOc1cccc(CN2[C@H]3Cc4c5ccc(C(=O)O)cc5nn4[C@H]3[C@H](c3cccc(Cl)c3F)[C@]23C(=O)Nc2cc(Cl)ccc23)c1 [Ia-32]
3 nM	Cc1cc2c3n(nc2cc1C(=O)O)[C@@H]1[C@H](C3)N(CC2CC2)[C@@]2(C(=O)Nc3cc(Cl)ccc32)[C@H]1c1cccc(Cl)c1F [Ia-33]
2 nM	Cc1c(C(=O)O)ccc2c3n(nc12)[C@@H]1[C@H](C3)N(CC2CC2)[C@@]2(C(=O)Nc3cc(Cl)ccc32)[C@H]1c1cccc(Cl)c1F [Ia-34]
2 nM	COc1cc2c3n(nc2cc1C(=O)O)[C@@H]1[C@H](C3)N(CC2CC2)[C@@]2(C(=O)Nc3cc(Cl)ccc32)[C@H]1c1cccc(Cl)c1F [Ia-35]
5 nM	COc1c(C(=O)O)ccc2c3n(nc12)[C@@H]1[C@H](C3)N(CC2CC2)[C@@]2(C(=O)Nc3cc(Cl)ccc32)[C@H]1c1cccc(Cl)c1F [Ia-36]
2 nM	O=C(O)c1ccc2nn3c(c2c1)C[C@H]1[C@@H]3[C@H](c2cccc(Cl)c2F)[C@]2(C(=O)Nc3cc(Cl)ccc32)N1CC1CC1 [Ia-38]
4 nM	Cc1cc2c3n(nc2cc1C(=O)O)[C@@H]1[C@H](C3)N(CC(C)C)[C@@]2(C(=O)Nc3cc(Cl)ccc32)[C@H]1c1cccc(Cl)c1F [Ia-39]
2 nM	CCOc1cccc(CN2[C@H]3Cc4c5cc(C)c(C(=O)O)cc5nn4[C@H]3[C@H](c3cccc(Cl)c3F)[C@]23C(=O)Nc2cc(Cl)ccc23)c1 [Ia-40]
3 nM	O=C(O)c1ccc2c3n(nc2c1)[C@@H]1[C@H](C3)N(CC2CC2)[C@@]2(C(=O)Nc3cc(Cl)ccc32)[C@H]1c1ccnc(Cl)c1F [Ia-41]
2 nM	O=C(O)c1ccc2c3n(nc2c1)[C@@H]1[C@H](C3)N(CC2CC2)[C@@]2(C(=O)Nc3nc(Cl)ccc32)[C@H]1c1cccc(Cl)c1F [Ia-43]
8 nM	CC(C)(O)CNC(=O)c1ccc2c3n(nc2c1)[C@@H]1[C@H](C3)N(CC2CCC2)[C@@]2(C(=O)Nc3cc(Cl)ccc32)[C@H]1c1cccc(Cl)c1F [Ia-46]
9 nM	O=C(NC1CC1)c1ccc2c3n(nc2c1)[C@@H]1[C@H](C3)N(CC2CCC2)[C@@]2(C(=O)Nc3cc(Cl)ccc32)[C@H]1c1cccc(Cl)c1F [Ia-47]
10 nM	COCC(COC)NC(=O)c1ccc2c3n(nc2c1)[C@@H]1[C@H](C3)N(CC2CCC2)[C@@]2(C(=O)Nc3cc(Cl)ccc32)[C@H]1c1cccc(Cl)c1F [Ia-48]
6 nM	COCCOCCNC(=O)c1ccc2c3n(nc2c1)[C@@H]1[C@H](C3)N(CC2CCC2)[C@@]2(C(=O)Nc3cc(Cl)ccc32)[C@H]1c1cccc(Cl)c1F [Ia-49]
4 nM	CCN1[C@H]2Cc3c4ccc(C(=O)NCCO)cc4nn3[C@H]2[C@H](c2cccc(Cl)c2F)[C@]12C(=O)Nc1cc(Cl)ccc12 [Ia-50]
7 nM	CCN1[C@H]2Cc3c4ccc(C(=O)NCCN(C)C)cc4nn3[C@H]2[C@H](c2cccc(Cl)c2F)[C@]12C(=O)Nc1cc(Cl)ccc12 [Ia-51]
